Data from patent publication US7056728B2, “Compositions and methods for use thereof in modifying the genomes of microorganisms” (priority 2000, dated 2006).

Legend:
[1] = test system: S. pneumoniae pAUL-A Tn4001 luxABCDE km^R; experiment: growth and colony formation of S. pneumoniae transformants in the presence of kanamycin; type: cell-based, Streptococcus pneumoniae; conditions: 10^3 CFUs plated on chocolate agar, increasing kanamycin 400 to 1000 μg/ml; approximately 1000 CFUs without kanamycin
MRSA strain I6 = experiment: antibiotic resistance of MRSA strain; type: cell-based, S. aureus
[2] = test system: S. pneumoniae A66.1 Xen 10; set-up: species or system Streptococcus pneumoniae; conditions: in vivo
Procedure: Thus, the strains HUSTMBIG, A66.1, EF3030 and 140301 were made bioluminescent and tested in both mouse lung and nasopharyngeal models. Briefly, exponential cultures of S. pneumoniae grown at 37° C. in BHI were pelleted and then resuspended in fresh BHI broth. Bacterial concentrations were estimated spectrophotometrically by absorbance at 600 nm and adjusted to approximately […] by dilution BHI. Cell numbers were verified by plating dilutions of inoculum onto BHI agar.
Pneumococci were introduced into the lungs of the mice by either direct intratracheal inoculation, or by intranasal administration. The animals were anesthetized with ketamine (100 mg/ml) and xylazine (20 mg/ml), mixed at a 4:1 ratio v/v just before use. The anesthesia mixture was injected intramuscularly into the right hamstring muscle at a dose of 100 mg ketamine/kg of body weight. After anesthesia was established, the mice were inoculated with approximately 10^6 CFU in a total volume of 20 μl, using a 25 ga. Ball-tipped gavage needle. Mice were held in vertical suspension for 10 minutes after inoculation to facilitate deep penetration of the inoculum. Alternatively, mice were infected intranasally with approximately 10^6 CFU by placing 20 μl of bacterial suspension on the nares and allowing the mice to inhale the inoculum. In the antibiotic studies, mice were treated with amoxicillin at 1 mg/kg or 5 mg/kg, given subcutaneously at t=0, 18, 24, and 42 hours post-infection.
Mice were imaged for a maximum of 5 min at a number of time points post-infection using an IVIS™ CCD camera (Xenogen Corporation, Alameda, Calif.). Total photon emission from selected and defined areas within the images of each mouse was quantified using the LivingImage™ software package (Xenogen Corporation, Alameda, Calif.). The photon signal from the thorax was quantified from the ventral image of each mouse.
Twelve mice were inoculated with approximately 10^6 CFU of S. pneumoniae A66.1 Xen 10. The mice were divided into three groups of four animals and two of these groups were treated with an amoxicillin regime at 1 or 5 mg/kg, the third group of animals remaining untreated as controls.
After the final imaging time point, mice were sacrificed and the infected lung tissue was surgically removed and weighed. Both lungs were homogenized together in 500 μl BHI in a loose Dounce homogenizer. The suspension was serially diluted in BHI and plated in duplicate onto BHI agar. Bacterial burden was estimated from the number of CFU/g of lung tissue. The bacterial load present in the nasal passage of the mice was obtained by washing approximately 0.25 ml of saline through the trachea and collecting the first 0.1 ml of nasal wash as it exited the nares, as described (Lipsitch et al. (2000) Vaccine 18:2895–2901; Wu et al. (1997) Microb. Pathog. 23:127–137).

In the case of `NC[C@H]1O[C@H](O[C@H]2[C@H](O)[C@@H](O[C@H]3O[C@H](CO)[C@@H](O)[C@H](N)[C@H]3O)[C@H](N)C[C@@H]2N)[C@H](O)[C@@H](O)[C@@H]1O` [kanamycin], the “number of colonies (average)” value [1] is reported as 56 to 35.

`O=C(N[C@H](CO)[C@H](O)c1ccc([N+](=O)[O-])cc1)C(Cl)Cl` [chloremphenicol] was tested, and the “resistance of strain to antibiotics tested” value (MRSA strain I6) was “resistant to all the antibiotics tested except for chloremphenicol”.

For `CC1(C)S[C@@H]2[C@H](NC(=O)[C@H](N)c3ccc(O)cc3)C(=O)N2[C@H]1C(=O)O` [amoxicillin], the “appearance of treated mice” value [2] was “appeared relatively healthy”, the “highest number of pneumococci isolated from a treated animal (lung tissue)” value [2] was 300 CFU/g tissue and the “treated animals showing no bacteria present in lung tissue” value [2] was “four of the eight”. The “animals with a bioluminescent signal” value ([2]; sc, 1 mg/kg) was “Three of the four” and the “animals with a significant bioluminescent signal” value ([2]; sc, 5 mg/kg) was “None of the four”.
